{"source": "patent US6287586A", "about": "“Pharmaceutical compositions of vanadium biguanide complexes and their use” (priority 1999, dated 2001)", "key": {"STZ-diabetic rats": {"system": "STZ-diabetic rats", "test": "Plasma glucose lowering in STZ-diabetic rats after i.p. administration (glucose oxidase method)", "format": "in vivo, male Wistar rats", "conditions": "for AUC (blood glucose): over 72 h after 0.12 mmol/kg i.p., group average; for rats with plasma glucose levels reduced to <9 mmol/L: 0.12 mmol/kg i.p. in 3% gum Arabic, STZ-diabetic rats", "procedure": "Nineteen male Wistar rats weighing 190-220 g were obtained from the Animal Care Center at the University of British Columbia. Animals were acclimatized for a period of 7-14 days in our facility.\nAnimals were made diabetic with a single intravenous injection of streptozotocin (STZ) (Source: Sigma) at 60 mg/kg in 0.9% NaCl (1 mL/kg volume) (Source: BDH ) under light halothane (Halocarbon Laboratories) anaesthesia. The diabetic state was confirmed on the third day post-stz-administration with Ames brand Glucometer and Glucostix reading, and blood glucose levels of over 13 mM were categorized as diabetic.\nOn day seven post STZ-administration, the nineteen animals were divided randomly into four groups. These four groups received one of four treatments, including control. The control group received an equivalent volume of 3% gum Arabic carrier alone.\nThe gum arabic was prepared by dissolving 3 g of gum arabic in 100 mL of distilled water. This mixture was sealed and stored under refrigeration for 1 week before the experiment.\nAll drugs were injected intraperitoneally into the rats at a volume of 5 ml/kg in 3% gum Arabic. The dose of administration was 0.12 mmol/kg.\nAnimals were allowed free access to food.\nBlood was collected from the tail into heparinized capillary tubes and centrifuged at 10,000 g for 15 minutes. Blood was collected in 50 μL aliquots in this manner prior to drug administration, and at 2, 4, 6, 8, 12, 16, 20, 24, 48 and 72 hours post administration.\nThe plasma was analyzed for glucose levels using Boehringer Mannheim Glucose Kits (glucose oxidase method)."}, "[1]": {"conditions": "human, in vivo, cited from earlier work"}, "[2]": {"conditions": "withdrawn drug; cited from earlier work"}, "[3]": {"conditions": "Sakurai et al. (1980); cited from earlier work"}, "STZ diabetic rats": {"system": "STZ diabetic rats", "conditions": "cited from earlier work"}, "rat adipocytes": {"system": "rat adipocytes", "conditions": "in vitro, Nature 284:556-558 (1980); cited from earlier work"}}}
{"compound": "CN(C)C(=N)NC(=N)N", "note": "[Metformin, 1,1-dimethylbiguanide]", "values": [{"measurement": "acute lowering of plasma glucose (in words)", "setting": "STZ-diabetic rats; IP 0.12 mmol/kg in 3% gum Arabic, over 72 hours", "result": "did not acutely lower plasma glucose levels"}, {"measurement": "AUC (blood glucose)", "setting": "STZ-diabetic rats", "result": 1572.94, "unit": "mmol/L/h"}, {"measurement": "dose excreted by the kidneys", "setting": "[1]; 24 h", "result": "about 90%"}, {"measurement": "oral dose excreted in the feces", "setting": "[1]; po", "result": "Approximately 30%"}]}
{"compound": "[H]/N=C(/N)N/C(=N/[H])NCCc1ccccc1", "note": "[phenformin, 1-phenethylbiguanide]", "values": [{"measurement": "side effects (in words)", "setting": "[2]", "result": "serious lactic acidosis side effects"}]}
{"compound": "[O]=[V]([O-])([O-])[O-]", "note": "[vanadate]", "values": [{"measurement": "in vivo reduction (in words)", "setting": "[3]", "result": "reduced in vivo to vanadyl"}, {"measurement": "elevated blood glucose (in words)", "setting": "STZ diabetic rats; STZ rats, administered in drinking water, McNeill et al. 1985", "result": "decreased the elevated blood glucose"}, {"measurement": "depression of cardiac performance (in words)", "setting": "STZ diabetic rats; STZ rats, drinking water, McNeill et al. 1985", "result": "prevented the depression of cardiac performance"}]}
{"compound": "[O]=[V+2]", "note": "[vanadyl ion]", "values": [{"measurement": "stimulation of glucose oxidation (in words)", "setting": "rat adipocytes", "result": "insulin-like stimulation of glucose oxidation in rat adipocytes was due to the vanadyl ion"}]}
{"compound": "O=S(=O)([O-])[O-].[O]=[V+2]", "note": "[vanadyl sulfate]", "values": [{"measurement": "blood glucose and blood lipids (in words)", "setting": "STZ diabetic rats; oral, STZ diabetic rats, McNeill et al.", "result": "lowers blood glucose and blood lipids"}, {"measurement": "secondary complications of diabetes (in words)", "setting": "STZ diabetic rats; oral, STZ diabetic rats, cataracts and cardiac dysfunction", "result": "prevents secondary complications of diabetes such as cataracts and cardiac dysfunction"}]}
{"compound": "Bis(N^1,N^1 -dimethylbiguanidato)oxovanadium(IV) [VO(met)2]", "values": [{"measurement": "rats with plasma glucose levels reduced to <9 mmol/L", "setting": "STZ-diabetic rats", "result": 40, "unit": "%"}, {"measurement": "AUC (blood glucose)", "setting": "STZ-diabetic rats", "result": 1362.61, "unit": "mmol/L/h"}, {"measurement": "plasma glucose lowering, rat studies (in words)", "setting": "STZ-diabetic rats; rat studies, summary statement", "result": "active in lowering plasma glucose"}]}
{"compound": "Bis(ethylmaltolato) oxovanadium(IV) [BEOV]", "values": [{"measurement": "rats with plasma glucose levels reduced to <9 mmol/L", "setting": "STZ-diabetic rats", "result": 40, "unit": "%"}, {"measurement": "AUC (blood glucose)", "setting": "STZ-diabetic rats", "result": 1197.30, "unit": "mmol/L/h"}]}
